Here are results for two compounds from patent US20240368506A1, “Manufacturing a Non-Alcoholic Distilled Spirit and Functional Ingredient” (priority 2022, published 2024).

One experiment has as its target T1, MAO A (Homo sapiens, UniProt P21397).
T1 sequence (P21397 1-527): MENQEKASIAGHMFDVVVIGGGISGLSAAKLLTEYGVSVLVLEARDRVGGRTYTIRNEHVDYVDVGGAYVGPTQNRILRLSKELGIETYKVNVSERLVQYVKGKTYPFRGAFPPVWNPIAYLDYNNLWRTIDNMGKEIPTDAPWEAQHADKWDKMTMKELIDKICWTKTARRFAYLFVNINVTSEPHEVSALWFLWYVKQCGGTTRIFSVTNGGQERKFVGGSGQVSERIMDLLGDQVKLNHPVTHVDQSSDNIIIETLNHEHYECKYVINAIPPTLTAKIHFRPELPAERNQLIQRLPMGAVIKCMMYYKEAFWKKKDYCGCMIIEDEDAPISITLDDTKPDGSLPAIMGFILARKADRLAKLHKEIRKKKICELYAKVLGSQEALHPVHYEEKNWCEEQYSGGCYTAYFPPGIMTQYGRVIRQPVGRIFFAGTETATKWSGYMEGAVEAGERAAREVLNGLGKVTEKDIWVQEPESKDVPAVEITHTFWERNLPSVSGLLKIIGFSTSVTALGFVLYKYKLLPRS
As to the kind of experiment: MAO A inhibitory activity of Don Julio Añejo or 40% ethanol spiked with terpenes. It counts as biochemical. The note with it: terpene at 0.5% (v/v) in tequila (40% ABV) and in 40% ethanol. The protocol: (§1) The effect terpenes on MAOI activity in tequila was evaluated in the experiment from Table 3. Terpenes were added to 40% ethanol and tequila (40% ABV) at 0.5%. (v/v) and assayed for MAO inhibitory activity.

For a further experiment, the target named is T2, MAO B (Homo sapiens, UniProt P27338).
T2 sequence (P27338 1-520): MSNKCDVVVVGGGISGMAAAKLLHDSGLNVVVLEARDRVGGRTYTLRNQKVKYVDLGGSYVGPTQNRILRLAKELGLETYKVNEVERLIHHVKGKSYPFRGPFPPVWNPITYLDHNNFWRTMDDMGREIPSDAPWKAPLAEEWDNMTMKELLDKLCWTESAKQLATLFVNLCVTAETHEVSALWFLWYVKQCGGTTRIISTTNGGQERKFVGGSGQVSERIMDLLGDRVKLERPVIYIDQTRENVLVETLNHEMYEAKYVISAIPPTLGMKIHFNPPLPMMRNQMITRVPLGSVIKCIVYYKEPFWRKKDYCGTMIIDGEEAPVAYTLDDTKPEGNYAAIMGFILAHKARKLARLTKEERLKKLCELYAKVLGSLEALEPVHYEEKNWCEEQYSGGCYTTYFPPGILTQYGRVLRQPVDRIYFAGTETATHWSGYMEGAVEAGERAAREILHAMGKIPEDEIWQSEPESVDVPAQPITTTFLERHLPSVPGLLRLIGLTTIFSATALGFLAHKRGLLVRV
As to the kind of experiment: MAO B inhibitory activity of Don Julio Añejo or 40% ethanol spiked with terpenes. As to conditions: terpene at 0.5% (v/v) in tequila (40% ABV) and in 40% ethanol. Type of experiment: biochemical. The protocol:
as §1

As for `C=C(C)[C@@H]1CCC2=CCC[C@@H](C)[C@]2(C)C1` [valencene], the “Δ % Inhibition MAO A (DJA + terpene) − (ETOH + terpene)” value at MAO A is given as 9%. The “Δ % Inhibition MAO B (DJA + terpene) − (ETOH + terpene)” value on MAO B was 20%.

As to Geramol, the “Δ % Inhibition MAO A (DJA + terpene) − (ETOH + terpene)” value at MAO A was found to be 4%. The “Δ % Inhibition MAO B (DJA + terpene) − (ETOH + terpene)” value on MAO B stood at 9%.
